Literature values in patent US20080317845A1, “Duloxetine Formulation” (priority 2007, published 2008).
Where a name gives a salt, the structure may show the parent alone.

Compound: CNCC[C@H](Oc1cccc2ccccc12)c1cccs1 [duloxetine, (+)-(S)-N-methyl-y-(1-naphthyloxy)-2-thiophenepropylamine hydrochloride]
- stability in acidic media: unstable
